Data on 23 compounds can be found in patent US9725449B2, “Tricyclic compounds as anticancer agents” (BRISTOL-MYERS SQUIBB COMPANY, priority 2015, dated 2017).

The experiment has as its target BRD4 (Homo sapiens, UniProt O60885). As to the kind of experiment: Time resolved fluorescence resonance energy transfer (TR-FRET) binding assay, bromodomain BRD4. The following applies: one of the FRET assays described; read-out: FRET BRD4 IC50. Background: In TR-FRET formats the signal depends on donor and acceptor labels being close together.
In the case of `Cc1nnn(C)c1-c1cnc2c3ccc(N4CCOCC4)nc3n([C@H](c3ccccc3)C3CCOCC3)c2c1` [Example 178, 5-(Dimethyl-1H-1,2,3-triazol-5-yl)-11-(morpholin-4-yl)-8-[(S)-oxan-4-yl(phenyl)methyl]-3,8,10-triazatricyclo[7.4.0.0^2,^7]trideca-1(9),2(7),3,5,10,12-hexaene], the IC50 (as a rule, the concentration at which inhibition is half-maximal) was less than 1 nM.
With `Cc1noc(C)c1-c1cnc2c3cnc(Cl)cc3n([C@H](c3ccc(F)cc3)C3CCOCC3)c2c1` [Example 326] the figure was less than 10 nM.
The same measure for `CSc1nccc2c3ncc(-c4c(C)nnn4C)cc3n([C@H](c3ccccc3F)C3CCOCC3)c12` [Example 31, 5-(Dimethyl-1H-1,2,3-triazol-5-yl)-8-[(S)-(2-fluorophenyl)(oxan-4-yl)methyl]-10-(methylsulfanyl)-3,8,11-triazatricyclo[7.4.0.0^2,^7]trideca-1(13),2(7),3,5,9,11-hexaene]: less than 10 nM.
The same measure for `[2H]C([2H])([2H])c1nnn(C)c1-c1cnc2c3c(OCCO)ncc(S(C)(=O)=O)c3n([C@H](c3ccccc3F)C3CCOCC3)c2c1` [Example 63, 2-({8-[(S)-(2-Fluorophenyl)(oxan-4-yl)methyl]-10-methanesulfonyl-5-[4-(^2H3)methyl-1-methyl-1H-1,2,3-triazol-5-yl]-3,8,12-triazatricyclo[7.4.0.0^2,^7]trideca-1(13),2(7),3,5,9,11-hexaen-13-yl}oxy)ethan-1-ol]: less than 1 nM.
Turning to `[2H]C([2H])([2H])c1nnn(C)c1-c1cnc2c3c(N[C@H](C)C4CC4)ncc(S(C)(=O)=O)c3n([C@H](c3ccccc3)C3CCOCC3)c2c1` [Example 114, N-[(1R)-1-Cyclopropylethyl]-10-methanesulfonyl-5-[4-(^2H3)methyl-1-methyl-1H-1,2,3-triazol-5-yl]-8-[(S)-oxan-4-yl(phenyl)methyl]-3,8,12-triazatricyclo[7.4.0.0^2,^7]trideca-1(13),2(7),3,5,9,11-hexaen-13-amine], the IC50 was less than 10 nM.
The same measure for `Cc1nnn(C)c1-c1cnc2c3c(OCC4CC4)ncc(S(C)(=O)=O)c3n([C@H](c3ccccc3)C3CCOCC3)c2c1` [Example 101, 13-(Cyclopropylmethoxy)-5-(dimethyl-1H-1,2,3-triazol-5-yl)-10-methanesulfonyl-8-[(S)-oxan-4-yl(phenyl)methyl]-3,8,12-triazatricyclo[7.4.0.0^2,^7]trideca-1(13),2(7),3,5,9,11-hexaene]: less than 10 nM; for `[2H]C([2H])([2H])c1nnn(C)c1-c1cnc2c3c(OCCCF)ncc(S(C)(=O)=O)c3n([C@H](c3ccccc3F)C3CCOCC3)c2c1` [Example 85, 8-[(S)-(2-Fluorophenyl)(oxan-4-yl)methyl]-13-(3-fluoropropoxy)-10-methanesulfonyl-5-[4-(^2H3)methyl-1-methyl-1H-1,2,3-triazol-5-yl]-3,8,12-triazatricyclo[7.4.0.0^2,^7]trideca-1(13),2(7),3,5,9,11-hexaene]: less than 1 nM.
`[2H]C([2H])([2H])c1nnn(C)c1-c1cnc2c3ccc(-c4c(C([2H])([2H])[2H])nnn4C)nc3n(C(c3ccccc3)C3CCC(F)(F)CC3)c2c1` (centres unmarked) [Example 260, 8-[(4,4-Difluorocyclohexyl)(phenyl)methyl]-5,11-bis[4-(^2H3)methyl-1-methyl-H-1,2,3-triazol-5-yl]-3,8,10-triazatricyclo[7.4.0.0^2,^7]trideca-1(13),2(7),3,5,9,11-hexaene]: the IC50 was less than 10 nM.
With `Cc1nnn(C)c1-c1cnc2c3ccc(NC(=O)OC(C)C)nc3n([C@H](c3ccccc3)C3CCOCC3)c2c1` [Example 206, Propan-2-yl N-[5-(dimethyl-1H-1,2,3-triazol-5-yl)-8-[(S)-oxan-4-yl(phenyl)methyl]-3,8,10-triazatricyclo[7.4.0.0^2,^7]trideca-1(9),2(7),3,5,10,12-hexaen-11-yl]carbamate] the figure was less than 10 nM; with `[2H]C([2H])([2H])c1nnn(C)c1-c1cnc2c3c(OC)ncc(S(C)(=O)=O)c3n([C@H](c3ccc(F)cc3)C3CCC(F)(F)CC3)c2c1` [Example 95, 8-[(S)-(4,4-Difluorocyclohexyl)(4-fluorophenyl)methyl]-10-methanesulfonyl-13-methoxy-5-[4-(^2H3)methyl-1-methyl-1H-1,2,3-triazol-5-yl]-3,8,12-triazatricyclo[7.4.0.0^2,^7]trideca-1(13),2(7),3,5,9,11-hexaene], less than 10 nM; with `Cc1nnn(C)c1-c1cnc2c3ccnc(N4CCOCC4)c3n([C@H](c3ccccc3)C3CCOCC3)c2c1` [Example 7, 5-(Dimethyl-1H-1,2,3-triazol-5-yl)-10-(morpholin-4-yl)-8-[(S)-oxan-4-yl(phenyl)methyl]-3,8,11-triazatricyclo[7.4.0.0^2,^7]trideca-1(13),2(7),3,5,9,11-hexaene], less than 10 nM.
Turning to `[2H]C([2H])([2H])c1nnn(C)c1-c1cnc2c3cc(C(=O)OC)cnc3n([C@H](c3ccccc3)C3CCOCC3)c2c1` [Example 348, Methyl 5-[4-(^2H3)methyl-1-methyl-1H-1,2,3-triazol-5-yl]-8-[(S)-oxan-4-yl(phenyl)methyl]-3,8,10-triazatricyclo[7.4.0.0^2,^7]trideca-1(13),2(7),3,5,9,11-hexaene-12-carboxylate], the 50% inhibitory concentration (IC50) is less than 10 nM.
On to `[2H]C([2H])([2H])c1nnn(C)c1-c1cnc2c3ccc(N4CC(=O)NC(=O)C4)nc3n([C@H](c3ccccc3)C3CCOCC3)c2c1` [Example 212, 4-{5-[4-(^2H3)Methyl-1-methyl-1H-1,2,3-triazol-5-yl]-8-[(S)-oxan-4-yl(phenyl)methyl]-3,8,10-triazatricyclo[7.4.0.0^2,^7]trideca-1(9),2(7),3,5,10,12-hexaen-11-yl}piperazine-2,6-dione], for which the IC50 is less than 10 nM.
The same measure for `[2H]C([2H])([2H])c1nnn(C)c1-c1cnc2c3ccc(N4C[C@@H](C)N[C@@H](C)C4)nc3n([C@H](c3ccccc3)C3CCOCC3)c2c1` [Example 252, 11-[(3R,5S)-3,5-Dimethylpiperazin-1-yl]-5-[4-(^2H3)methyl-1-methyl-1H-1,2,3-triazol-5-yl]-8-[(S)-oxan-4-yl(phenyl)methyl]-3,8,10-triazatricyclo[7.4.0.0^2,^7]trideca-1(13),2(7),3,5,9,11-hexaene]: less than 1 nM; for `[2H]C([2H])([2H])c1nnn(C)c1-c1cnc2c3c(OCC4CC4(F)F)nccc3n([C@H](c3ccccc3)C3CCOCC3)c2c1` (stereo partly drawn) [Example 279, 13-[(2,2-Difluorocyclopropyl)methoxy]-5-[4-(^2H3)methyl-1-methyl-1H-1,2,3-triazol-5-yl]-8-[(S)-oxan-4-yl(phenyl)methyl]-3,8,12-triazatricyclo[7.4.0.0^2,^7]trideca-1(9),2(7),3,5,10,12-hexaene]: less than 1 nM; for `COc1ccc2c3ncc(-c4c(C)nnn4C)cc3n(C(c3cccc(F)c3F)C3CCOCC3)c2n1` (racemic) [Example 17, 8-[(2,3-Difluorophenyl)(oxan-4-yl)methyl]-5-(dimethyl-1H-1,2,3-triazol-5-yl)-11-methoxy-3,8,10-triazatricyclo[7.4.0.0^2,^7]trideca-1(13),2(7),3,5,9,11-hexaene]: less than 10 nM.
The same measure for “2-{8-[(3-Fluoropyridin-2-yl)(oxan-4-yl)methyl]-11-[4-(^2H3)methyl-1-methyl-1H-1,2,3-triazol-5-yl]-3,8,10-triazatricyclo[7.4.0.0^2,^7]trideca-1(9),2,4,6,10,12-hexaen-5-yl}propan-2-ol [Example 362]”: less than 10 nM.
Take `CC(=O)c1cnc2c3ccc(-c4c(C)nnn4C)nc3n([C@H](c3ccccc3)C3CCOCC3)c2c1` [Example 379]: the IC50 was less than 1 nM.
The same measure for `Cc1nnn(C)c1-c1cnc2c3ccc(NS(C)(=O)=O)nc3n([C@H](c3ccccc3F)C3CCOCC3)c2c1` [Example 240, N-[5-(Dimethyl-1H-1,2,3-triazol-5-yl)-8-[(S)-(2-fluorophenyl)(oxan-4-yl)methyl]-3,8,10-triazatricyclo[7.4.0.0^2,^7]trideca-1(13),2(7),3,5,9,11-hexaen-11-yl]methanesulfonamide]: less than 10 nM.
With `[2H]C([2H])([2H])c1nnn(C)c1-c1cnc2c3c(OCC4CC4)ncc(S(C)(=O)=O)c3n([C@H](c3ccccc3F)C3CCOCC3)c2c1` [Example 76, 13-(Cyclopropylmethoxy)-8-[(S)-(2-fluorophenyl)(oxan-4-yl)methyl]-10-methanesulfonyl-5-[4-(^2H3)methyl-1-methyl-1H-1,2,3-triazol-5-yl]-3,8,12-triazatricyclo[7.4.0.0^2,^7]trideca-1(13),2(7),3,5,9,11-hexaene], the IC50 is less than 1 nM.
On to `[2H]C([2H])([2H])N1CCN(c2ccc3c4ncc(-c5c(C)nnn5C)cc4n([C@H](c4ccccc4F)C4CCOCC4)c3n2)CC1` [Example 250, 5-(Dimethyl-1H-1,2,3-triazol-5-yl)-8-[(S)-(2-fluorophenyl)(oxan-4-yl)methyl]-11-[4-(^2H3)methylpiperazin-1-yl]-3,8,10-triazatricyclo[7.4.0.0^2,^7]trideca-1(13),2(7),3,5,9,11-hexaene], for which the IC50 is less than 10 nM.
With `[2H]C([2H])([2H])c1nnn(C)c1-c1cnc2c3c(NCC(F)(F)F)cncc3n([C@H](c3ccccc3)C3CCOCC3)c2c1` [Example 302, 5-[4-(^2H3)Methyl-1-methyl-1H-1,2,3-triazol-5-yl]-8-[(S)-oxan-4-yl(phenyl)methyl]-N-(2,2,2-trifluoroethyl)-3,8,11-triazatricyclo[7.4.0.0^2,^7]trideca-1(9),2(7),3,5,10,12-hexaen-13-amine] the figure was less than 1 nM; with `Cc1noc(C)c1-c1cnc2c3c(NS(=O)(=O)C4CC4)ncc(S(C)(=O)=O)c3n([C@H](c3ccccc3)C3CCOCC3)c2c1` [Example 98, N-[5-(Dimethyl-1,2-oxazol-4-yl)-10-methanesulfonyl-8-[(S)-oxan-4-yl(phenyl)methyl]-3,8,12-triazatricyclo[7.4.0.0^2,^7]trideca-1(13),2(7),3,5,9,11-hexaen-13-yl]cyclopropanesulfonamide], less than 10 nM.
